# Measurements from US7531660B2, “1-[[1-[(2-amino-6-methyl-4-pyridinyl)methyl]-4-fluoro-4-piperidinyl]carbonyl]-4-[2-(2-pyridinyl)-3H-imidazo[4,5-B]pyridin-3-YL]piperidine and methods of use thereof” (Schering Corporation, priority 2005, dated 2009).
# “And” between values parts separate entries of the source, which are not always exact repeats. Equal values may be shown once. Read-outs that look alike come from different tables or passages of the source.
# Key:
# [1] = tested on: mice made obese with a high fat diet; assay: Diet-induced obesity in mice (weight gain); format: in vivo; details: DIO mice, oral once a day, 0.3 mg/kg in 20% aqueous HPBCD
# Description: Diet-induced obesity (DIO) was determined according to the following procedure. Young mice were maintained in individual cages at 22° C. on a 12:12 hr light/dark cycle. Mice were made obese with a high fat diet. Mice were orally gavaged daily with vehicle or compound; body weight and food intake were monitored daily.
# [2] = Oral tolerance in dogs with plasma level analysis; format: in vivo, beagle dogs; details: for Plasma level at Day 0: prior to the study; for concentration at 24 h / concentration at 7 day: beagle, dog, plasma, po; for concentration at 24 h / concentration at 7 day / Plasma level at Day 1 / Plasma level at Day 7: 5 mg/kg, 5 mg/kg oral daily; for concentration at 24 h / Plasma level at Day 1: 24 hours after first dose; for concentration at 24 h: read-out: Plasma level at Day 1; for concentration at 7 day / Plasma level at Day 7: end of study
# Description: Male and female beagle dogs (N=6, age≧4 months, each having a body weight of from 10-15 kg) were used in this study. The treated animals (N=4) were orally administered the Compound of formula I once a day for 7 days at a daily dosage of 5 mg/kg (5 times proposed efficacy dose). The control animals (N=2) were orally administered vehicle only. Animals were fasted for 8 hours prior to each administration of the Compound of formula I or vehicle and were fasted for 2 hours after each administration of the Compound of formula I or vehicle. Blood samples were collected before, during, and after the treatment period for pharmacokinetic analysis.
# Approximately 4.0±1 mL of blood was drawn from each animal at prior to the study (day 0), at 24 hours after the first dose (day 1), and at the end of the study (day 7), using jugular venipuncture and immediately placed into separated Vacutainer® tubes containing EDTA anticoagulant, and processed for plasma. The plasma was aspirated and divided into two aliquots (≧0.3 ml each) and each aliquot was frozen at −70° C. or less.
# Collected blood plasma samples were analyzed for the concentration of the Compound of formula I using the following analytical method: […]
# D: Sample Preparation Procedure: • 1) Pipette 40 μL of sample into a 1 mL 96-well plate. • 2) Add 150 μL of internal standard solution to each well. • 3) Gently vortex plate for 1 minute. • 4) Centrifuge samples for 10 minutes (Eppendorf 5810 Centifuge). • 5) Pipette 100 μL of supernatant into a 350 μL 96-well plate. Results
# Feline H3 Receptors = Feline H3 Receptors (Felis catus, UniProt A0ABI7WGM6); assay: Binding to feline H3 receptors, brain P2 membranes; details: Cat brain membranes, N=3, mean ± SEM
# Feline H3 Receptors, sequence (A0ABI7WGM6 entry or part of it): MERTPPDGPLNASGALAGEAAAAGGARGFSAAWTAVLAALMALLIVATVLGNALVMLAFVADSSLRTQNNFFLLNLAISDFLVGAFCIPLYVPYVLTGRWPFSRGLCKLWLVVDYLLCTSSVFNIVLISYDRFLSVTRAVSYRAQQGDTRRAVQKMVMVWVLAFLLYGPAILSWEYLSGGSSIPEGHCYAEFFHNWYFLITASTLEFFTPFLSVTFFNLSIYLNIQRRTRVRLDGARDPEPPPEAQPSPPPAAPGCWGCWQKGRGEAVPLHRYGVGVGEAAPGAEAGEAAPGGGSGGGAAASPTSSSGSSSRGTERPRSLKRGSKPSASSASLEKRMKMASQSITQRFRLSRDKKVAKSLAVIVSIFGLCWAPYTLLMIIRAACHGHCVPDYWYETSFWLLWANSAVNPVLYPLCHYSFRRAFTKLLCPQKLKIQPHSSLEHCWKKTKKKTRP
# Description: (§1) Binding assays were performed with membranes from a P2 pellet preparation of brain from each species as described in West et al., Mol Pharmacol 38:610-613 (1990). Frozen brains were thawed at room temperature and then disrupted in ten volumes (w:v) of ice-cold 50 mM Tris-HCl, pH 7.4, with a Polytron. Homogenates were centrifuged at 1000×g and supernatants then centrifuged at 50,000×g. Pellets from the second centrifugation were resuspended in buffer, sedimented again at 50,000×g, and stored frozen at −80° C.
# (§2) Each 200 μL assay volume contained 1.0 nM [^3H]N^−α-methylhlstamine, test compound, and 300 μg of membrane protein in 50 mM Tris-HCl, pH 7.4. Total binding was determined in the absence of compound and nonspecific binding in the presence of 10^−5 M thioperamide. Assay mixtures are incubated 30 minutes at 30° C. then filtered on CF/B filters. Filters were rinsed three times with cold buffer, dried, impregnated with Meltilex scintillation counting medium, and counted. IC50 values were determined using standard curve-fitting procedures and Ki values were calculated from these using the method set forth in Cheng et al., Biochem Pharmacol 22:3099-3108 (1973). Each competition binding assay comprised ten concentrations of compound, each concentration assayed in duplicate. Binding data obtained for the Compound of Formula I to canine and feline H3 receptors are set forth below in Table 1. […]
# [3] = molecular target: T1, recombinant human histamine H3 receptor (Homo sapiens, UniProt Q9Y5N1); assay: Human H3-receptor binding assay ([3H]N-alpha-methylhistamine, HEK-293 membranes)
# T1 construct: expressed in transfected cells
# T1 sequence (Q9Y5N1 whole entry): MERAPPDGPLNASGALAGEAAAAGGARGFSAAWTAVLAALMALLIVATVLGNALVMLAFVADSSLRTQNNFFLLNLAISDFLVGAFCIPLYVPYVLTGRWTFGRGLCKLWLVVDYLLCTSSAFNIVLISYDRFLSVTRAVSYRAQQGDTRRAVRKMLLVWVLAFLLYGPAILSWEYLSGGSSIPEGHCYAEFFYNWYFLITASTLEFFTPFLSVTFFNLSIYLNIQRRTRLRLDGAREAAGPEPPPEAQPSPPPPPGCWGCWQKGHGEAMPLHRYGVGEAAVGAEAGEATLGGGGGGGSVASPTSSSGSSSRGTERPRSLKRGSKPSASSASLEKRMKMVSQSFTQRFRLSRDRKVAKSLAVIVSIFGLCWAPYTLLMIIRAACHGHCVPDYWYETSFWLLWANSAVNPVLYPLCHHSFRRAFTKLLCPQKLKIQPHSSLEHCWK
# Description: Binding assays were performed with membranes from HEK-293 cells stably expressing recombinant human histamine H3 receptor. Each 200 μL assay volume contained 1.0 nM [^3H]N^−α-methylhistamine, test compound, and 3 μg of membrane protein in 50 mM Tris-HCl, pH 7.4. Total binding was determined in the absence of compound and nonspecific binding in the presence of 10^−5 M thioperamide. Material was incubated 30 minutes at 30° C. then filtered on GF/B filters. These were rinsed three times with cold buffer, then dried, impregnated with Meltilex scintillation counting medium, and counted. Ki values were determined from standard curve-fitting procedures. […] Values are averages from two assays with duplicate determinations in each. Errors are expressed as the range of these values from the mean.
# [4] = tested on: mice having diet-induced obesity; assay: Liver triglycerides in obese mice; format: in vivo; details: DIO mice, 10 mg/kg/day gavage for 12 days
# Description: The Compound of Formula I was administered daily for 12 days via gavage to mice having diet-induced obesity at a dosage of 10 mg/kg/day (vehicle 0.4% aqueous methylcellulose (MC); see procedure for diet-induced obesity described above).
# On day 12, the animals were sacrificed, their livers were collected, and liver pieces were extracted according to the procedure of Folch et al., J. Biol. Chem. 226:497-509 (1957). The collected liver tissue was then homogenized in 6 mL of chloroform:methanol (2:1), 4 mL water was added to the homogenized mixture and the resulting solution was vortexed, then centrifuged at 1000×g for 30 minutes. The chloroform layer was removed and dried under nitrogen to provide the extracted lipids, which were redissolved in 1 mL chloroform and aliquots were transferred into HPLC sample vials. […]
# Chromatography was performed using an isocratic mobile phase containing 98.8% hexane and 1.2% isopropanol at a flow rate of 2 mL/min through a Zorbax Sil (4.6×25 cm) silica column (Agilent Technologies #880952-701). Lipids in a 5 μL injection were detected by absorbance at 206 nm and quantitated by computer integration (System Gold, Beckman) of elution profiles. Cholesterol, cholesteryl ester, and triglyceride concentrations were determined by comparison to standard curves using Non-polar Lipid Mix-B, Matreya, Inc., Pleasant Gap, Pa. cat. #1130.
# [5] = Canine pharmacokinetics after oral and i.v. administration; format: in vivo, beagle dogs; details: fasted dogs; for MRT: read-out: Mean Residence Time (MRT)
# Description: The Compound of Formula I was administered at a dose of 3 mg/kg to fasted beagle dogs orally (PO) at […] (0.4% MC formulation) and i.v. at […] (captisol, pH 5.1 fornulation). Blood samples were taken at multiple time intervals for 48 hours post dosing. The blood samples were converted to plasma and stored at −20° C. until being assayed for the Compound of Formula I using an HPLC-API-MS/MS procedure. The pharmacokinctic parameters that were calculated from thiis study are sumarized in Table 2 below.
# Canine H3 Receptors = Canine H3 Receptors (Canis lupus familiaris, UniProt A0A8I3P226); assay: Binding to canine H3 receptors, brain P2 membranes; details: Dog brain membranes, N=2, mean ± SEM
# Canine H3 Receptors, sequence (A0A8I3P226 1-445): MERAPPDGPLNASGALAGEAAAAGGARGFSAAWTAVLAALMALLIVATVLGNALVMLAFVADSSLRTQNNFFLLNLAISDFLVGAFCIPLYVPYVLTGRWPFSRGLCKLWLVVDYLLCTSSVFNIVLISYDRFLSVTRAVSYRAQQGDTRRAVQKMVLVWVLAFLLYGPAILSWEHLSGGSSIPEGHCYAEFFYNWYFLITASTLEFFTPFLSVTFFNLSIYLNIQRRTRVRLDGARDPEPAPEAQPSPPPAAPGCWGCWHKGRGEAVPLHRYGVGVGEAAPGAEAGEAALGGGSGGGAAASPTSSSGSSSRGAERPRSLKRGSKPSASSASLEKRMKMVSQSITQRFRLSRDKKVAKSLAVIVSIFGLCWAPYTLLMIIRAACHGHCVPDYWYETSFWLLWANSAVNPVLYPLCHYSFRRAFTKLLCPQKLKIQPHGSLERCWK
# Description: as §1, §2
# [6] = both sexes, Mean of 4 treated dogs
# [7] = dogs, daily oral 5 mg/kg for 7 days
# [8] = male, male dog, individual animal
# [9] = beagle, dog, plasma, IV 3 mg/kg
# [10] = beagle, dog, plasma, oral 3 mg/kg
# [11] = beagle, dog, plasma, oral 3 mg/kg, 0.4% MC
smiles,measurement,setting,value
"Cc1cc(CN2CCC(F)(C(=O)N3CCC(n4c(-c5ccccn5)nc5cccnc54)CC3)CC2)cc(N)n1 [Compound of Formula I, 1-[[1-[(2-amino-6-methyl-4-pyridinyl)methyl]-4-fluoro-4-piperidinyl]carbonyl]-4-[2-(2-pyridinyl)-3H-imidazo[4,5-b]pyridin-3-yl]piperidine]",inhibition of weight gain,[1],statistically significant inhibition of weight gain
same,Plasma level at Day 0,[2]; Mean of 4 treated dogs,1.70 ng/mL
same,concentration at 24 h,[2]; [6],257 ng/mL
same,concentration at 7 day,[2]; [6],422 ng/mL
same,accumulation in plasma,"[2]; dogs, 7 days daily oral 5 mg/kg",accumulated 7 days after daily oral administration
same,adverse events,[2]; [7],No adverse events were observed
same,tolerability,[2]; [7],well tolerated
same,Plasma level at Day 1,"[2]; female dog, individual animal",148 ng/mL and 604 ng/mL
same,Plasma level at Day 7,"[2]; female dog, individual animal",680 ng/mL
same,Plasma level at Day 0,"[2]; female dog, individual animal",0 ng/mL
same,concentration at 7 day,"[2]; female, female dog, individual animal",540 ng/mL
same,Plasma level at Day 1,"[2]; male dog, individual animal",157 ng/mL
same,Plasma level at Day 7,"[2]; male dog, individual animal",207 ng/mL
same,Plasma level at Day 0,"[2]; male dog, individual animal",0 ng/mL and 6.8 ng/mL
same,concentration at 24 h,[2]; [8],118 ng/mL
same,concentration at 7 day,[2]; [8],263 ng/mL
same,Ki,Feline H3 Receptors,4.9 ± 0.6 nM
same,Ki,[3],4.6 nM
same,reduction in liver triglyceride content relative to control,[4]; 0.4% MC,52%
same,liver triglyceride content,"[4]; compound treated group, average",861±87 mg/liver
same,clearance,[5]; [9],1.7 mL/min/kg
same,half-life,[5]; [9],9.5 h
same,AUC(0-inf),"[5]; beagle, dog, plasma, IV 3 mg/kg, captisol pH 5.1",32800 ng·h/mL
same,MRT,[5]; [9],10.9 h
same,Vd,"[5]; beagle, dog, plasma, IV 3 mg/kg, read-out: Vd (ss)",1.1 L/kg
same,Cmax,[5]; [10],910 ng/mL
same,AUC(0-inf),[5]; [11],18900 ng·h/mL
same,bioavailability,[5]; [11],58%
same,MRT,[5]; [10],18.6 h
same,Mean Absorption Time (MAT) (MRTpo − MRTiv),[5]; oral 3 mg/kg,7.8 h
same,Ki,Canine H3 Receptors,1.3 ± 0.2 nM
